Among the data in patent publication US11603350B2, “Compound, composition, cured object, optically anisotropic body, and reflective film” (FUJIFILM Corporation, priority 2016, dated 2023) are Δn, Light resistance evaluation and Solubility values, retold here.

Holding throughout (type): physicochemical
Series [1] is described as follows: Δn (refractive index anisotropy) measurement, wedge-shaped liquid crystal cell. As to conditions: at 550 nm and 30° C.; for compounds liable to crystallize, estimated from extrapolated values of mixtures with other liquid crystals. The text has this:
As a method of measuring the Δn, a method using a wedge-shaped liquid crystal cell described on page 202 of the Liquid Crystal Handbook (edited by Liquid Crystal Handbook Editing Committee, published by Maruzen Co., Ltd.) is generally used. In a case of a compound which is liable to crystallize, it is also possible to carry out evaluation with a mixture thereof with other liquid crystals and to estimate Δn from extrapolated values thereof.
The Δn corresponds to a measured value at a wavelength of 550 nm at 30° C.
Δn of each of the compounds was measured by a method using a wedge-shaped liquid crystal cell described on page 202 of the Liquid Crystal Handbook (edited by Liquid Crystal Handbook Editing Committee, published by Maruzen Co., Ltd.). In a case of the compound which is liable to crystallize, evaluation with a mixture thereof with other liquid crystals was carried out and Δn was estimated from extrapolated values thereof. The values in the table represent Δn's at 550 nm and 30° C.

The nature of series [2]: Evaluation of light resistance (residual rate after ultraviolet irradiation). As to conditions: 5 mg in acetonitrile (20 ml), 1 cm quartz cell, ultraviolet light 3 J/cm^2; residual rate by liquid chromatography. As for the experimental part:
Each (5 mg) of the compounds was dissolved in acetonitrile (20 ml), sealed in a 1 cm quartz cell, and the quartz cell was irradiated with ultraviolet light under a condition of 3 J/cm^2 using EXECURE 3000-W manufactured by HOYA-SCHOTT CORPORATION, so that a residual rate of each compound was measured. Amounts (masses) of each compound before and after light irradiation were calculated using liquid chromatography. In Table 1, “A” represents a residual rate of equal to or greater than 80%, “B” represents a residual rate of equal to or greater than 50% and less than 80%, and “C” represents a residual rate of less than 50%.
The residual rate is a ratio of an amount (mass) of a compound after light irradiation to an amount (mass) of the compound before light irradiation, and can be calculated by the following expression. Residual rate (%)=(amount of compound after light irradiation/amount of compound before light irradiation)×100

Series [3] is described as follows: Solubility measurement in ethyl methyl ketone. As to conditions: concentration in ethyl methyl ketone solution where the compound was completely dissolved. As for the experimental part: Ethyl methyl ketone was added dropwise to each of the compounds, and a concentration (% by mass) of the compound in the obtained ethyl methyl ketone solution in a case where the compound was completely dissolved in the solution was measured as “solubility”. It is intended that a higher numerical value of solubility indicates excellent solubility in ethyl methyl ketone.

The structures appear in SMILES notation.

Turning to `C=CC(=O)OCCCCOc1ccc(C#Cc2ccc(C(=O)Nc3ccc(C#Cc4ccc(OCCCCOC(=O)C=C)cc4)cc3C(F)(F)F)cc2)cc1` [Compound a-8], the Δn in series [1] is given as 0.370. In addition, in series [2], the Light resistance evaluation entry is on record as “A (a residual rate of equal to or greater than 80%)”. The compound further had a Solubility in series [3] of 22 % by mass.
Taken in the same sequence, the figures for `C=CC(=O)OCCCCOc1ccc(C#Cc2ccc(NC(=O)c3ccc(OCCCCOC(=O)C=C)cc3)c(C)c2)cc1` [Compound a-2] were 0.280, “A (a residual rate of equal to or greater than 80%)” and 23 % by mass.
In the case of `C=CC(=O)OCCCCOc1ccc(C#Cc2ccc(NC(=O)c3ccc(OCCCCOC(=O)C=C)cc3)cc2C)cc1` [Compound a-3], the Δn in series [1] is reported as 0.282. Besides, the Light resistance evaluation result in series [2] is “A (a residual rate of equal to or greater than 80%)”. Further, in series [3], the Solubility is reported as 19 % by mass.
Consider `C=CC(=O)OCCCCOc1ccc(C(=O)Oc2ccc(C#Cc3ccc(CCCCCCC)cc3)cc2)cc1` [Compound b-1, reference compound], for which, in series [1], the Δn was 0.220. Further, the Light resistance evaluation result in series [2] is given as “C (a residual rate of less than 50%)”.
In the case of `C=CC(=O)OCCCCOc1ccc(C#Cc2ccc(NC(=O)c3ccc(OCCCCOC(=O)C=C)cc3)c(C(F)(F)F)c2)cc1` [Compound a-6], the Δn in series [1] is 0.287. For the same compound, the Light resistance evaluation entry in series [2] is recorded as “A (a residual rate of equal to or greater than 80%)”. This compound displayed a Solubility in series [3] of 38 % by mass.
For `C=CC(=O)OCCCCOc1ccc(C#Cc2ccc(NC(=O)c3ccc(OCCCCOC(=O)C=C)cc3)c(OC)c2)cc1` [Compound a-4] the same measures were 0.301, “A (a residual rate of equal to or greater than 80%)” and 20 % by mass.
As to `C=CC(=O)OCCCCOc1ccc(C(=O)Nc2ccc(C#Cc3ccc4nc(SCCCCOC(=O)C=C)sc4c3)cc2C(F)(F)F)cc1` [Compound a-7], the Δn in series [1] is 0.304. Further, the Light resistance evaluation result in series [2] is given as “A (a residual rate of equal to or greater than 80%)”. In series [3], the Solubility stood at 22 % by mass.
For `C=CC(=O)OCCCCOc1ccc(C#Cc2ccc(NC(=O)c3ccc(OCCCCOC(=O)C=C)cc3)c(F)c2)cc1` [Compound a-5], in series [1], the Δn is 0.278. For the same compound, the Light resistance evaluation entry in series [2] was “A (a residual rate of equal to or greater than 80%)”. This compound displayed a Solubility in series [3] of 11 % by mass.
For `C=CC(=O)OCCCCOc1ccc(C#Cc2ccc(NC(=O)c3ccc(OCCCCOC(=O)C=C)cc3)cc2)cc1` [Compound a-1] the same measures were 0.289, “A (a residual rate of equal to or greater than 80%)” and 5 % by mass.
